# Results as given in patent US20250084088A1, “ANTIVIRAL COMPOUNDS AND METHODS OF MAKING AND USING THE SAME” (Gilead Sciences, Inc., priority 2023, published 2025).
# Columns and labels:
# [1] = MT4 CC50 cytotoxicity in uninfected cells (CC50-MT4-384), Example G; type: cell-based; settings: human; uninfected MT-4 cells, 4-5 days, Cell-Titer Glo
# Description: Example G. HEp-2 and MT4 CC50 Cytotoxicity of the compounds was determined in uninfected cells using the cell viability reagent in a similar fashion as described before for other cell types ([…] et al., ANTIMICROB AGENTS CHEMOTHER. 2008, 52(2):655-65). HEp-2 (1.5×10^3 cells/well) and MT-4 (2×10^3 cells/well) cells were plated in 384-well plates and incubated with the appropriate medium containing 3-fold serially diluted compound ranging from 15 nM to 100,000 nM. Cells were cultured for 4-5 days at 37° C. Following the incubation, the cells were allowed to equilibrate to 25° C., and cell viability was determined by adding Cell-Titer Glo viability reagent. The mixture was incubated for 10 min, and the luminescence signal was quantified using an Envision plate reader. Untreated cell and cells treated at 2 μM puromycin (Sigma, St. Louis, MO) serve as 100% and 0% cell viability control, respectively. The percent of cell viability was calculated for each tested compound concentration relative to the 0% and 100% controls and the CC50 value was determined by non-linear regression as a compound concentration reducing the cell viability by 50%.
# RSV strain A2 = experiment: RSV Cellomics assay for RSV A2 antiviral activity (EC50-RSV-Hep2-96-Cellomics), Example Z; type: cell-based; settings: human respiratory syncytial virus, HEp-2, 72 h; Hep2 cells infected with RSV strain A2, MOI=0.05, 3 days, RSV F protein immunofluorescence
# Description: Example Z: RSV Cellomics Assay for RSV A2 Antiviral Activity (EC50-RSV-Hep2-96-Cellomics) 8×10^3 Hep2 cells are seeded into 96 well plates in 100 μL of media (DMEM supplemented with GlutaMAX, 10% FBS and Pen/Strep) and briefly spun at 50×g for 1 minute to attach cells. Cells were further allowed to attach with overnight incubation at 37° C.+5% CO2. The following day, the media was aspirated and 100 μL of fresh DMEM media containing 2% FBS was added. A three-fold dilution series of compounds of interest are then added to the plate using the Tecan D300e dispenser and the plate is normalized to the well with the highest volume of DMSO. The cells are next infected by adding 100 μL of media containing RSV strain A2 at an MOI=0.05 and the plates incubated for 3 days at 37° C.+5% CO2. Following the incubation, the media is removed, and the cells are washed once with 250 μL PBS and fixed with 250 μL ice-cold 100% methanol for 10 minutes at 4 C. The methanol is then removed and the plates air dried for 5 minutes and then washed once with 250 μL PBS to remove any residual methanol. The wells are then blocked 60 μL/well of BlockAid (B10710, Thermo-Fisher) for 1 hour at RT on rocker at which point the blocking buffer is carefully aspirated. Primary antibody against the RSV F protein (MAB 858-1) is then diluted 1:2000 in SuperBlock (37515, Thermo Fisher) and 50 μL of the primary antibody solution is added to each well. The plates are incubated at room temperature for 1 hour with gentle agitation and then washed with 250 μL of PBS-Tween 3 times. A goat anti-mouse AlexaFluor 647 conjugated secondary antibody (Sigma, A21235) is then diluted 1:2000 and Hoescht 33342 (H3570) at 1:1000 in SuperBlock and 50 μL added to the wells for 1 hour at 37° C. After incubation the antibody solution is aspirated, and the wells are then washed with 250 μL of PBS-Tween 3 times. To keep cells from drying out, 100 μL of PBS is added to each well and the plates are sealed with black plate seal. Fluorescence at the 647 nm wavelength is measured using a Cellomics CellInsight CX7 machine. Compound activity is determined as a percentage of the % positive cells (or average intensity) compared to DMSO treated RSV infected well controls following subtraction of uninfected controls. The EC50 values are then calculated using nonlinear regression analysis in GraphPad Prism.
EC50 (RSV strain A2),SMILES,CC50 [1]
9740 nM,"N#C[C@]1(CO)O[C@@H](c2ccc3c(N)ncnn23)[C@H](O)[C@@H]1O [Compound 0, (2R,3S,4R,5S)-5-(4-aminopyrrolo[1,2-f][1,2,4]triazin-7-yl)-3,4-dihydroxy-2-(hydroxymethyl)tetrahydrofuran-2-carbonitrile, reference compound]",> 50000 nM
100000 nM,"CC(=O)O[C@H]1[C@H](c2ccc3c(N)ncnn23)O[C@](C#N)(COC(=O)OC(C)C)[C@H]1OC(C)=O [Compound 3, (2R,3S,4S,5S)-5-(4-aminopyrrolo[2,1-f][1,2,4]triazin-7-yl)-2-cyano-2-(((isopropoxycarbonyl)oxy)methyl)tetrahydrofuran-3,4-diyl diacetate]",> 50000 nM
54000 nM,"COC(=O)OC[C@@]1(C#N)O[C@@H](c2ccc3c(N)ncnn23)[C@H](OC(C)=O)[C@@H]1OC(C)=O [Compound 4, (2R,3S,4S,5S)-5-(4-aminopyrrolo[2,1-f][1,2,4]triazin-7-yl)-2-cyano-2-(((methoxycarbonyl)oxy)methyl)tetrahydrofuran-3,4-diyl diacetate]",> 50000 nM
61500 nM,"CCOC(=O)OC[C@@]1(C#N)O[C@@H](c2ccc3c(N)ncnn23)[C@H](OC(C)=O)[C@@H]1OC(C)=O [Compound 5, (2R,3S,4S,5S)-5-(4-aminopyrrolo[2,1-f][1,2,4]triazin-7-yl)-2-cyano-2-(((ethoxycarbonyl)oxy)methyl)tetrahydrofuran-3,4-diyl diacetate]",> 50000 nM
,"CC(=O)O[C@H]1[C@H](c2ccc3c(N)ncnn23)O[C@](C#N)(COC(=O)OC(C)OC(=O)[C@H](C(C)C)N(C)C)[C@H]1OC(C)=O (stereo partly drawn) [Compound 7, (2R,3S,4S,5S)-5-(4-aminopyrrolo[2,1-f][1,2,4]triazin-7-yl)-2-cyano-2-((8S)-8-isopropyl-5,9-dimethyl-3,7-dioxo-2,4,6-trioxa-9-azadecyl)tetrahydrofuran-3,4-diyl diacetate]",> 50000 nM

SMILES,EC50 (RSV strain A2),CC50 [1]
"CC(=O)O[C@H]1[C@H](c2ccc3c(N)ncnn23)O[C@](C#N)(COC(=O)OCC(C)C)[C@H]1OC(C)=O [Compound 1, (2R,3S,4S,5S)-5-(4-aminopyrrolo[2,1-f][1,2,4]triazin-7-yl)-2-cyano-2-(((isobutoxycarbonyl)oxy)methyl)tetrahydrofuran-3,4-diyl diacetate]",45900 nM,> 50000 nM
"CCC(=O)O[C@H]1[C@H](c2ccc3c(N)ncnn23)O[C@](C#N)(COC(=O)OCC(C)C)[C@H]1OC(=O)CC [Compound 2, (2R,3S,4S,5S)-5-(4-aminopyrrolo[2,1-f][1,2,4]triazin-7-yl)-2-cyano-2-(((isobutoxycarbonyl)oxy)methyl)tetrahydrofuran-3,4-diyl dipropionate]",49200 nM,> 50000 nM
"CCOC(=O)OC[C@@]1(C#N)O[C@@H](c2ccc3c(N)ncnn23)[C@H](OC(=O)OCC)[C@@H]1OC(=O)OCC [Compound 6, (2R,3S,4S,5S)-5-(4-aminopyrrolo[2,1-f][1,2,4]triazin-7-yl)-2-cyano-2-(((ethoxycarbonyl)oxy)methyl)tetrahydrofuran-3,4-diyl diethyl bis(carbonate)]",68600 nM,> 50000 nM
